Measured values from BigSolDB 2.1.

OC[C@@H](O)[C@@H](O)[C@H](O)[C@@H](O)CO
solubility (mole fraction)
Settings | in THF | in acetone | in acetonitrile | in ethanol | in ethyl acetate | in methanol | in n-butanol | in n-propanol
278.15 K | 0.000363 | 0.000225 | 0.000109 | 0.000598 | 0.000239 | 0.00205 | 0.000449 | 0.000553
283.15 K | 0.000406 | 0.000255 | 0.000129 | 0.000753 | 0.000259 | 0.00275 | 0.000533 | 0.000677
288.15 K | 0.000446 | 0.000287 | 0.000153 | 0.000944 | 0.000289 | 0.00351 | 0.000627 | 0.000838
293.15 K | 0.000489 | 0.000328 | 0.000178 | 0.00117 | 0.000317 | 0.00461 | 0.000748 | 0.00102
298.15 K | 0.000544 | 0.000382 | 0.000208 | 0.00146 | 0.000354 | 0.00585 | 0.000895 | 0.00124
303.15 K | 0.000597 | 0.000436 | 0.000249 | 0.00181 | 0.000392 | 0.00739 | 0.00106 | 0.00152
